Results on two molecules are retold here after patent publication US20190269656A1, “Combination Therapies Using Indazolylbenzamide Derivatives for the Treatment of Cancer” (ESANEX, INC., priority 2016, published 2019).

Data set [1] concerns unresectable gastro-entero-pancreatic or pulmonary NETs. The data set can be described thus: Tumor response by RECIST 1.1 in NET patients treated with SNX-5422 plus everolimus. It is filed as in vivo, human. On the procedure:
(§1) Starting on Day 1, SNX-5422 was dosed once every other day for 21 days (11 doses), followed by a 7-day drug free period. SNX-5422 was dosed each morning starting at 50 mg/m^2 with standard 3+3 dose escalation. The actual dose administered was based on body surface area, calculated using body weight measured at the start of each cycle and height at Screening. The calculated dose was then rounded to the nearest mg on dosing chart. Everolimus was dosed at 10 mg once daily in the evening (at least 8 hours after SNX-5422 dosing) for 28 days, with dose de-escalation allowed based on EVR toxicity. Eligible patients were to have unresectable gastro-entero-pancreatic or pulmonary NETs and less than 5 prior lines of anti-cancer treatment.
Tumor response was assessed at the end of every 2 cycles±2 weeks, using RECIST 1.1 criteria (Eisenhauer et al. European Journal of Cancer 45:228-247 (2009)). Partial Response (PR) was defined as at least a 30% decrease in the sum of diameters of target lesions, taking as reference the baseline sum diameters. Progressive Disease (PD) was defined as at least a 20% increase in the sum of diameters of target lesions, taking as reference the smallest sum on study. Stable disease is noted where there is no sufficient shrinkage to qualify for PR or no sufficient increase to qualify for PD.

Data set [2] is described as follows: Tolerability: treatment-emergent adverse events and MTD, SNX-5422 dose escalation plus everolimus in NET patients. It is filed as in vivo. To be noted: in combination with everolimus, once every other day for 21 days of 28-day cycle. On the procedure: as §1
Results: Seventeen patients (10 male, 7 female; median age 59 years) with NETs were enrolled in the study. The maximum tolerated dose (MTD) of SNX-5422 was determined to be 75 mg/m^2 in combination with everolimus.
Tolerability: Most frequent (i.e., occurring in 6 or more patients overall) Treatment-Emergent Adverse Events (TEAEs) are provided in Table 1. All patients reported at least one TEAE. Diarrhea was the most commonly reported TEAE, occurring in 80% of patients overall. In 13 patients (65%), the event was considered related to the combination of SNX-5422 and everolimus. […]

For data set [3], the system named is advanced, non-functional neuroendocrine tumours of the lung or gastrointestinal tract. To be noted: everolimus only, without SNX-5422; patients with NETs; RADIANT-4; cited from earlier work.
The mark [4] stands for this setting: of 17 NET patients evaluable, SNX-5422 plus everolimus, RECIST 1.1.
The mark [5] stands for this setting: patients previously treated with 2 or less prior lines of treatment (FIG. 2), SNX-5422 plus everolimus.
The mark [6] stands for this setting: six patients, GI tract/lung/unknown carcinoid, ≤2 prior lines and Ki67<20% (FIG. 4), SNX-5422 plus everolimus.

Consider `CC1(C)CC(=O)c2c(C(F)(F)F)nn(-c3ccc(C(N)=O)c(N[C@H]4CC[C@H](OC(=O)CN)CC4)c3)c2C1` [SNX-5422, trans-4-({2-(aminocarbonyl)-5-[6,6-dimethyl-4-oxo-3-(trifluoromethyl)-4,5,6,7-tetrahydro-1H-indazol-1-yl]phenyl}amino)cyclohexyl glycinate], for which, in data set [1] (combination of SNX-5422 plus everolimus, NET patients), the “subjects receiving ongoing treatment for over 2 years (i.e., ≥30 cycles)” value came to 2 subjects. For the same molecule, in data set [1] (setting [4]), the “partial response as best response, % of patients” value is on record as 18%; the “partial response as best response, number of patients” value is 3 patients; the “progressive disease as best response, % of patients” value amounted to 18%; the “progressive disease as best response, number of patients” value was found to be 3 patients. Also, in data set [1] (setting [4]), the “stable disease as best response, % of patients” value is 64% and the “stable disease as best response, number of patients” value was determined as 11 patients. Further, the tumor reduction in data set [1] (one patient with GI NET, 30 treatment cycles, SNX-5422 plus everolimus) is 31%. Further, the tumor reduction in data set [1] (one patient with lung carcinoid, 10 treatment cycles, SNX-5422 plus everolimus) is recorded as 51%. In addition, in data set [1] (one patient with unknown carcinoid, 35 treatment cycles, SNX-5422 plus everolimus), the tumor reduction was 36%. In data set [1] (one patient, SNX-5422 plus everolimus), the “reduction in target lesion size” value stood at 51%. Further, the “tumor measurement, second diameter (CT scan left iliac adenopathy)” value in data set [1] (patient with pulmonary carcinoid NET, after 4 cycles of treatment, baseline 4.25 cm, SNX-5422 plus everolimus) was 2.42 cm. Besides, in data set [1] (patient with pulmonary carcinoid NET, after 4 cycles of treatment, baseline 6.51 cm, SNX-5422 plus everolimus), the “tumor measurement, first diameter (CT scan left iliac adenopathy)” value was 3.75 cm. In data set [1] (setting [5]), the “partial response as best response, number of patients” value came out at 3 patients; the “progressive disease as best response, number of patients” value stood at 1 patients; the “stable disease as best response, number of patients” value was 7 patients. Besides, in data set [1] (setting [6]), the overall response rate was determined as 50% and the “partial response, number of patients” value is “three”. For the same molecule, the “maximum tolerated dose (MTD)” value in data set [2] came to 75 mg/m^2.
With `CO[C@H]1C[C@@H]2CC[C@@H](C)[C@@](O)(O2)C(=O)C(=O)N2CCCC[C@H]2C(=O)O[C@H]([C@H](C)C[C@@H]2CC[C@@H](OCCO)[C@H](OC)C2)CC(=O)[C@H](C)/C=C(\C)[C@@H](O)[C@@H](OC)C(=O)[C@H](C)C[C@H](C)/C=C/C=C/C=C/1C` [everolimus, (1R,9S,12S,15R,16E,18R,19R,21R,23S,24E,26E,28E,30S,32S,35R)-1,18-dihydroxy-12-{(1R)-2-[(1 S,3R,4R)-4-(2-hydroxyethoxy)-3-methoxycyclohexyl]-1-methylethyl}-19,30-dimethoxy-15,17,21,23,29,35-hexamethyl-11,36-dioxa-4-aza-tricyclo[30.3.1.04,9]hexatriaconta-16,24,26,28-tetraene-2,3,10,14,20-pentaone], the “partial response rate, % of patients” value in data set [3] is “about 2%”.
